Values of other authors in patent publication US4196187A, “Rumen-stable pellets” (Eastman Kodak Company, priority 1977, dated 1980).

Assays:
[1] = Example 1

| Solubility g./100 g. water at 25° C. | soluble to the extent of (25° C., water) | acidity of a saturated solution (pH) [1] | SMILES |
| --- | --- | --- | --- |
| 4.0 g./100 g. water | – | – | CSCCC(N)C(=O)O (racemic) [DL - Methionone] |
| – | about 70 g./100 g. of water | 5.5 | Cl.NCCCC[C@H](N)C(=O)O [L-Lysine monohydrochloride] |
